According to ChEMBL document CHEMBL2375306, “Antimicrobial peptides containing unnatural amino acid exhibit potent bactericidal activity against ESKAPE pathogens” (Bioorg Med Chem, 2013):
In brackets after ≈: the same amount, converted by molar mass. Square brackets hold non-standard residues; d marks the D form. Peptide text beside a SMILES is read from it. ξ: configuration not given here. Pro(3ξ,4ξ-(CH2)4) = O=C(O)[C@H]1NCC2CCCCC21; Tic = O=C(O)[C@@H]1Cc2ccccc2CN1; ξE = NC(CCC(=O)O)C(=O)O; Dap = NC[C@H](N)C(=O)O; ξL = CC(C)CC(N)C(=O)O

Experiments:
Format in all cases: functional
Enterococcus faecium = assay: Antibacterial activity against Enterococcus faecium MMC4 after 24 hrs by broth microdilution method; conditions: MMC4, 24 h
Klebsiella aerogenes = assay: Antibacterial activity against Enterobacter aerogenes after 24 hrs by broth microdilution method
Pseudomonas aeruginosa = assay: Antibacterial activity against Pseudomonas aeruginosa PAO1 after 24 hrs by broth microdilution method; conditions: PAO1, 24 h
Klebsiella pneumoniae = assay: Antibacterial activity against Klebsiella pneumoniae BAMS clinical isolate 07-18 after 24 hrs by broth microdilution method; conditions: BAMS clinical isolate 07-18, 24 h
Acinetobacter baumannii = assay: Antibacterial activity against Acinetobacter baumannii WRAIR clinical isolate 13 after 24 hrs by broth microdilution method; conditions: WRAIR clinical isolate 13, 24 h
Staphylococcus aureus = assay: Antibacterial activity against methicillin-sensitive Staphylococcus aureus UAMS-1 after 24 hrs by broth microdilution method; conditions: UAMS-1, 24 h

Compound | MBC (Enterococcus faecium) | MIC (Enterococcus faecium) | MBC (Klebsiella aerogenes) | MIC (Klebsiella aerogenes) | MBC (Pseudomonas aeruginosa) | MIC (Pseudomonas aeruginosa) | MBC (Klebsiella pneumoniae) | MIC (Klebsiella pneumoniae) | MBC (Acinetobacter baumannii) | MIC (Acinetobacter baumannii) | MBC (Staphylococcus aureus) | MIC (Staphylococcus aureus)
CC(C)C[C@H](NC(=O)[C@@H](N)CCCCN)C(=O)N1Cc2ccccc2C[C@H]1C(=O)N1CC2CCCCC2[C@H]1C(=O)NCC(=O)N[C@@H](CCCCN)C(=O)N1Cc2ccccc2C[C@H]1C(=O)N1CC2CCCCC2[C@H]1C(=O)NCC(=O)N[C@@H](Cc1ccccc1)C(=O)N1Cc2ccccc2C[C@H]1C(=O)N1CC2CCCCC2[C@H]1C(=O)NCC(=O)N[C@@H](CCCCN)C(=O)N1Cc2ccccc2C[C@H]1C(=O)N1CC2CCCCC2[C@H]1C(=O)NCC(=O)N[C@@H](Cc1ccccc1)C(=O)N1Cc2ccccc2C[C@H]1C(=O)N1CC2CCCCC2[C@H]1C(=O)NCC(=O)N[C@@H](CCCCN)C(=O)N1Cc2ccccc2C[C@H]1C(=O)N1CC2CCCCC2[C@H]1C(=O)N[C@@H](CCCCN)C(=O)N[C@@H](CCCCN)C(=O)N[C@@H](CCCCN)C(=O)N[C@@H](CCCCN)C(N)=O (stereo partly drawn) (H-KL[Tic][Pro(3ξ,4ξ-(CH2)4)]GK[Tic][Pro(3ξ,4ξ-(CH2)4)]GF[Tic][Pro(3ξ,4ξ-(CH2)4)]GK[Tic][Pro(3ξ,4ξ-(CH2)4)]GF[Tic][Pro(3ξ,4ξ-(CH2)4)]GK[Tic][Pro(3ξ,4ξ-(CH2)4)]KKKK-NH2) | 25 mg/L (≈ 6.95 µM) | 6.25 mg/L (≈ 1.74 µM) | 50 mg/L (≈ 13.9 µM) | 50 mg/L (≈ 13.9 µM) | 50 mg/L (≈ 13.9 µM) | 50 mg/L (≈ 13.9 µM) | 50 mg/L (≈ 13.9 µM) | 50 mg/L (≈ 13.9 µM) | 12.5 mg/L (≈ 3.47 µM) | 12.5 mg/L (≈ 3.47 µM) | 50 mg/L (≈ 13.9 µM) | 50 mg/L (≈ 13.9 µM)
CSCC[C@H](NC(=O)C(CC(C)C)NC(=O)[C@H](CCC(=O)O)NC(=O)[C@@H]1C2CCCCC2CN1C(=O)[C@@H]1Cc2ccccc2CN1C(=O)[C@H](CCCCN)NC(=O)CNC(=O)[C@H](CC(C)C)NC(=O)CNC(=O)[C@@H]1C2CCCCC2CN1C(=O)[C@@H]1Cc2ccccc2CN1C(=O)C(CCC(=O)O)NC(=O)[C@H](CCCCN)NC(=O)CNC(=O)[C@H](CC(C)C)NC(=O)CNC(=O)[C@@H]1C2CCCCC2CN1C(=O)[C@@H]1Cc2ccccc2CN1C(=O)[C@H](CCCCN)NC(=O)CNC(C)=O)C(=O)NCC(=O)N[C@@H](CCC(=O)O)C(=O)N[C@@H](CCCNC(=N)N)C(N)=O (stereo partly drawn) (Ac-GK[Tic][Pro(3ξ,4ξ-(CH2)4)]GLGK[ξE][Tic][Pro(3ξ,4ξ-(CH2)4)]GLGK[Tic][Pro(3ξ,4ξ-(CH2)4)]E[ξL]MGER-NH2) | > 100 mg/L | > 100 mg/L | > 100 mg/L | > 100 mg/L | > 100 mg/L | > 100 mg/L | > 100 mg/L | > 100 mg/L | > 100 mg/L | > 100 mg/L | > 100 mg/L | > 100 mg/L
CC(=O)NCC(=O)N[C@@H](Cc1ccccc1)C(=O)N1Cc2ccccc2C[C@H]1C(=O)N1CC2CCCCC2[C@H]1C(=O)NCC(=O)N[C@@H](CCCCN)C(=O)N1Cc2ccccc2C[C@H]1C(=O)N1CC2CCCCC2[C@H]1C(=O)NCC(=O)N[C@@H](Cc1ccccc1)C(=O)N1Cc2ccccc2C[C@H]1C(=O)N1CC2CCCCC2[C@H]1C(=O)NCC(=O)N[C@@H](CCCCN)C(=O)N1Cc2ccccc2C[C@H]1C(=O)N[C@@H](CCCCN)C(=O)N[C@@H](CCCCN)C(=O)N[C@@H](CCCCN)C(=O)N[C@@H](CCCCN)C(N)=O (stereo partly drawn) (Ac-GF[Tic][Pro(3ξ,4ξ-(CH2)4)]GK[Tic][Pro(3ξ,4ξ-(CH2)4)]GF[Tic][Pro(3ξ,4ξ-(CH2)4)]GK[Tic]KKKK-NH2) | 50 mg/L (≈ 20.5 µM) | 25 mg/L (≈ 10.2 µM) | 100 mg/L (≈ 41 µM) | 100 mg/L (≈ 41 µM) | 100 mg/L (≈ 41 µM) | 100 mg/L (≈ 41 µM) | 100 mg/L (≈ 41 µM) | 100 mg/L (≈ 41 µM) | 25 mg/L (≈ 10.2 µM) | 6.25 mg/L (≈ 2.56 µM) | > 100 mg/L | > 100 mg/L
CC(C)C[C@H](NC(=O)[C@@H](N)CN)C(=O)N1Cc2ccccc2C[C@H]1C(=O)N1CC2CCCCC2[C@H]1C(=O)N[C@@H](CN)C(=O)N1Cc2ccccc2C[C@H]1C(=O)N1CC2CCCCC2[C@H]1C(=O)N[C@@H](Cc1ccccc1)C(=O)N1Cc2ccccc2C[C@H]1C(=O)N1CC2CCCCC2[C@H]1C(=O)N[C@@H](CN)C(=O)N1Cc2ccccc2C[C@H]1C(=O)N1CC2CCCCC2[C@H]1C(=O)N[C@@H](Cc1ccccc1)C(=O)N1Cc2ccccc2C[C@H]1C(=O)N1CC2CCCCC2[C@H]1C(=O)N[C@@H](CN)C(=O)N1Cc2ccccc2C[C@H]1C(=O)N1CC2CCCCC2[C@H]1C(=O)N[C@@H](CN)C(=O)N[C@@H](CN)C(=O)N[C@@H](CN)C(=O)N[C@@H](CN)C(N)=O (stereo partly drawn) (H-[Dap]L[Tic][Pro(3ξ,4ξ-(CH2)4)][Dap][Tic][Pro(3ξ,4ξ-(CH2)4)]F[Tic][Pro(3ξ,4ξ-(CH2)4)][Dap][Tic][Pro(3ξ,4ξ-(CH2)4)]F[Tic][Pro(3ξ,4ξ-(CH2)4)][Dap][Tic][Pro(3ξ,4ξ-(CH2)4)][Dap][Dap][Dap][Dap]-NH2) | 25 mg/L (≈ 8.4 µM) | 12.5 mg/L (≈ 4.2 µM) | 100 mg/L (≈ 33.6 µM) | 100 mg/L (≈ 33.6 µM) | 100 mg/L (≈ 33.6 µM) | 50 mg/L (≈ 16.8 µM) | 100 mg/L (≈ 33.6 µM) | 100 mg/L (≈ 33.6 µM) | 50 mg/L (≈ 16.8 µM) | 12.5 mg/L (≈ 4.2 µM) | 100 mg/L (≈ 33.6 µM) | 50 mg/L (≈ 16.8 µM)
